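Following 48 hours of exposure in 96-well plates, responses at five concentrations were used to interpolate endpoints linearly. Here, GI50 denotes the concentration required for 50% inhibition of growth. At the TGI there is no net growth.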
Key:
Test in all cases: growth of human tumour cells (NCI), 48 h; in the data active = GI50 below about 0.43 µM; inactive = the rest
[1] = test system: SN12C renal
[2] = test system: HL-60(TB) leukemia
[3] = test system: ACHN renal
[4] = test system: RXF 393 renal
[5] = test system: TK-10 renal
[6] = test system: OVCAR-3 ovarian
[7] = test system: T-47D breast
[8] = test system: IGROV1 ovarian
[9] = test system: HOP-62 NSCLC
[10] = test system: MOLT-4 leukemia

N#Cc1ccccc1NC(=O)C(=O)c1c(O)c2ccccc2oc1=O
> 100 µM: TGI [1] | TGI [2] | TGI [3] | TGI [4] | TGI [5] | TGI [6] | TGI [7] | TGI [8] | TGI [9]

CN(Cc1cc(Br)cc(Br)c1O)Cc1cc(Br)cc(Br)c1O
18.9 µM: TGI [3]
16.7 µM: TGI [1]
11.2 µM: TGI [6]
inactive: GI50 [1] 2.5 µM | GI50 [2] 1.08 µM | GI50 [3] 1.63 µM | GI50 [4] 2.65 µM | GI50 [5] 4.26 µM | GI50 [6] 1.42 µM | GI50 [7] 2.27 µM | GI50 [10] 3.31 µM | GI50 [8] 1.56 µM | GI50 [9] 1.74 µM
23.6 µM: TGI [7]
18.1 µM: TGI [8] | TGI [9]
10.9 µM: TGI [2]
36.3 µM: TGI [10]
15.3 µM: TGI [4]
20.4 µM: TGI [5]

O=C1c2ccccc2S(=O)(=O)N1CSC(=S)N1CCCCC1
active: GI50 [2] 0.0329 µM
inactive: GI50 [1] > 46.5 µM | GI50 [3] > 100 µM | GI50 [4] > 100 µM | GI50 [5] > 100 µM | GI50 [6] > 100 µM | GI50 [7] > 100 µM | GI50 [8] > 89 µM | GI50 [9] > 100 µM
> 100 µM: TGI [1] | TGI [2] | TGI [3] | TGI [4] | TGI [5] | TGI [6] | TGI [7] | TGI [8] | TGI [9]

Cl.Fc1c[c-]c(-c2ccccn2)c(F)c1.[Pt].c1ccc(P(c2ccccc2)C([PH+](c2ccccc2)c2ccccc2)[PH+](c2ccccc2)c2ccccc2)cc1
6.07 µM: TGI [2]
15.1 µM: TGI [4]
8.5 µM: TGI [7]
11.9 µM: TGI [5]
9.78 µM: TGI [9]
15.4 µM: TGI [1]
inactive: GI50 [1] 2.91 µM | GI50 [2] 1.95 µM | GI50 [3] 3.05 µM | GI50 [4] 3.09 µM | GI50 [5] 2.67 µM | GI50 [6] 2.68 µM | GI50 [7] 2.25 µM | GI50 [10] 2.54 µM | GI50 [8] 3.16 µM | GI50 [9] 2.63 µM
8.06 µM: TGI [6]
> 100 µM: TGI [3] | TGI [10] | TGI [8]

NC(=O)c1ccc(NN=O)nc1
> 100 µM: TGI [1] | TGI [2] | TGI [3] | TGI [4] | TGI [5] | TGI [6] | TGI [7] | TGI [10] | TGI [8] | TGI [9]
inactive: GI50 [4] > 100 µM

C[C@H](Nc1ncnc2nc[nH]c12)c1cc2ccc(F)cc2nc1-c1ccccn1
99.5 µM: TGI [7]
59.2 µM: TGI [4]
> 100 µM: TGI [1] | TGI [2] | TGI [3] | TGI [5] | TGI [6] | TGI [10] | TGI [8] | TGI [9]
inactive: GI50 [1] 57.8 µM | GI50 [2] 30.3 µM | GI50 [3] 47.9 µM | GI50 [4] 4.26 µM | GI50 [5] 47.4 µM | GI50 [6] 34.3 µM | GI50 [7] 17.2 µM | GI50 [10] 52.2 µM | GI50 [8] 20.4 µM | GI50 [9] > 57.8 µM

CCCCCCCCCCCCCC1=NCCN1CCO
> 100 µM: TGI [2] | TGI [10] | TGI [8]
7.43 µM: TGI [4]
inactive: GI50 [1] 2.57 µM | GI50 [2] 3.11 µM | GI50 [3] 2.04 µM | GI50 [4] 2.72 µM | GI50 [5] 4.75 µM | GI50 [6] 2.73 µM | GI50 [7] 4.57 µM | GI50 [10] 4.11 µM | GI50 [8] 4.46 µM | GI50 [9] 5.62 µM
13.1 µM: TGI [7]
6.48 µM: TGI [6]
4.68 µM: TGI [3]
12.7 µM: TGI [5] | TGI [9]
6.47 µM: TGI [1]
